Measured values published in patent US20080199480A1, “Methods for Identifying Risk of Type II Diabetes and Treatments Thereof” (SEQUENOM, INC., priority 2004, published 2008).
One block for each molecule: values may come before it.

Tests used:
[1] = molecular target: T1, EPHA3 (Homo sapiens, UniProt P29320); assay: DELFIA EPHA3 kinase assay (phosphorylation of biotin-Src-peptide); type: biochemical; details: EPHA3 30 nM, biotin-Src-peptide 1 μM, ATP 30 μM, 3 hr incubation at 37° C., read-out: EPHA3 Potency IC50
T1 construct: human EPHA3 intracellular domain (amino acids 571-986) containing juxtamembrane, kinase and SAM regions; 6xHis; made in house; host or cells: E. coli (Rosetta DE cells)
T1 sequence (P29320 571-983 limits assumed): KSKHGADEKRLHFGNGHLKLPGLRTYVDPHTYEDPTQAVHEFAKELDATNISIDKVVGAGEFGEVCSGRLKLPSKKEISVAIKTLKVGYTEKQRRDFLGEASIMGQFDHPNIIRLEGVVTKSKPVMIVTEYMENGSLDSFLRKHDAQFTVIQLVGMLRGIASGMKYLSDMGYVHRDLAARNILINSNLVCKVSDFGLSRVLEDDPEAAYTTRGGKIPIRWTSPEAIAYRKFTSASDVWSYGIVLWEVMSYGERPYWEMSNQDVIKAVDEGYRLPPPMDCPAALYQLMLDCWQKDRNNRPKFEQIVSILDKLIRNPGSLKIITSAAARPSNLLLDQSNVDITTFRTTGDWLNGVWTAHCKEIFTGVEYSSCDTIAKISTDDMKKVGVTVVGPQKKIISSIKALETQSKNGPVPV
Protocol: An EPHA3 enzyme construct comprised the human EPHA3 intracellular domain (amino acids 571-986) containing juxtamembrane, kinase and SAM regions. It was expressed in E. coli as a recombinant protein. 6×His and NusA expression tags were used in pET28a and pET44a vectors (Novagen), respectively. Expression was carried out in Rosetta DE cells with IPTG induction followed by recombinant protein purification on a Ni-column using imidazole elution buffer.
The ATP concentrations are selected near the Michaelis-Menten constant (KM) for each individual kinase. Dose-response experiments are performed at ten different inhibitor concentrations in a 384-well plate format. The data are fitted to a standard four-parameter equation listed below:
Y=Min+(Max−Min)/(1+XIC50)̂H
These parameters are obtained by nonlinear regression algorithm built into ActivityBase software (available from ID Business Solutions Ltd., of Guildford, Surrey, UK).
The DELFIA method is a solid-phase, non-homogeneous system that measures enzymatic activity by quantitating the phosphorylation of an immobilized substrate. The compound names are provided in the “Compositions Comprising Diabetes-Directed Molecules” section.
In this experiment, EPHA3 (30 nM) was incubated with biotinylated substrate, biotin-Src-peptide (1 μM)+ATP (30 μM) in an assay medium (10 mM HEPES pH 7.4, 2 mM MgCl2, 10 μM MnCl2, 1.0 mM DTT, 0.01% Pluronic F-127) in the presence of test compounds. After 3 hr incubation at 37° C., the reaction was stopped (5 mM EDTA) and the substrate phosphorylation was quantified in DELFIA assay using Eu-labeled anti-phosphotyrosine antibody.

[2] = system: resistin mRNA in differentiated 3T3-L1 cells; assay: Quantitative assessment of mResistin levels (mRNA, PCR); type: cell-based, mouse; details: 10 nM insulin for 2 hours
Protocol: Resistin is a secreted factor specifically expressed in white adipocyte. […] Elevated levels of resistin have been measured in genetically obese, and high fat fed obese mice. It is therefore thought that resistin contributes to peripheral tissue insulin unresponsiveness, one of the pathological hallmarks of diabetes.
3T3-L1 cells were differentiated for 3 days as previously described and maintained for three days prior to splitting. At day 5 post-differentiation, differentiated cells were plated in 10 cm dish at a cell density of 3×10^6 cells. Cells were then serum starved on day 7 after initiation of differentiation. On day 8, cells were treated with pre-clustered recombinant rat ephrin-A5/Fc chimera as described above for 10 min and treated with 10 nM insulin for 2 hours. Cells were harvested, mRNA extracted using magnetic DYNAL beads and reverse transcribed to cDNA using. Superscript First-Strand Synthesis as described by the manufacturer. The following primers: forward primer; 5′ GTCGCTTCCTGATGTCGGTCA 3′, and reverse primer, 5′ GGCCAGCCTGGACTATATGAG 3′, were used in 15 uL PCR reaction using 55 deg annealing temperature and 30 cycles of amplification.

[3] = system: Differentiated 3T3-L1; assay: Triacylglycerol (TG) assay; type: cell-based, mouse; details: 100 nM insulin, 2 hours
Source text: A direct metabolic consequence of glucose transport intracellularly is its incorporation into the fatty acid and glycerol moieties of triacylglycerol (TG). TGs are highly concentrated stores of metabolic energy, and are the major energy reservoir of cells. In mammals, the major site of accumulation of triacylglycerols is the cytoplasm of adipose cells. Adipocytes are specialized for the synthesis, and storage of TG, and for their mobilization into fuel molecules that are transported to other tissues through the bloodstream. It is likely that changes in the transport of glucose intracellularly can affect cytoplasmic stores of triacylglycerols.
Cells were plated in 6-well dishes, and grown to confluency. When cells reached confluency, cells were differentiated with DMEM plus 10% fetal calf serum (FCS), 10 ug/mL insulin, 390 ng/mL dexamethasone and 112 ug/mL isobutylmethylxanthine for 2 days. After 2 days of differentiation, media was changed to maintenance media DMEM plus 10%. FCS and […] insulin. On the day of the assay (day 9 post-differentiation), cells were washed once with PBS, and serum starved by adding 2 mL of DMEM plus 2 mg/ml BSA for 3 hours. During serum starvation, recombinant rat ephrin-A5/Fc chimeric ligand was preclustered. […] The assay was read at 500-550 nm.

[4] = system: Differentiated 3T3-L1; assay: Glucose uptake assay (insulin-mediated uptake of radioactive glucose); type: cell-based, mouse; details: 100 nM insulin for 10 minutes
Source text: One of the many responses of adipocytes and muscle cells after exposure, to insulin is the transport of glucose intracellularly. This transport is mediated by GLUT4, an insulin-regulatable glucose transporter. Insulin binding to insulin receptors on the cell surface results in autophosphorylation and activation of the intrinsic tyrosine kinase activity of the insulin receptor. Phosphorylated tyrosine residues on the insulin receptor and its endogenous targets activate several intracellular signaling pathways that eventually lead to the translocation of GLUT4 from intracellular stores to the extracellular membrane. Cells were plated in 6-well dishes, and grown to confluency. Cells were then differentiated with DMEM plus 10% fetal calf serum (FCS), 10 ug/mL insulin, 390 ng/mL dexamethasone and 112 ug/mL isobutylmethylxanthine for 2 days. After 2 days of differentiation, media was changed to maintenance media DMEM plus 10% FCS and 5 ug/mL insulin. Media was changed every 2 days thereafter. Cells were assayed for insulin-mediated glucose uptake 10 days after differentiation. On the day of the assay, cells were washed once with PBS, and serum starved by adding 2 mL of DMEM plus 2 mg/mL BSA for 3 hours. During serum starvation, recombinant rat ephrin-A5/Fc chimeric ligand was preclustered. […] Lysates were read in a Wallac 1450 Microbeta Liquid Scintillation and Luminescence Counter.

[5] = molecular target: T2, EPHA3 on differentiated 3T3-L1 cells (mouse) (UniProt P29319); assay: cell-based or functional assay
T2 sequence (looked up): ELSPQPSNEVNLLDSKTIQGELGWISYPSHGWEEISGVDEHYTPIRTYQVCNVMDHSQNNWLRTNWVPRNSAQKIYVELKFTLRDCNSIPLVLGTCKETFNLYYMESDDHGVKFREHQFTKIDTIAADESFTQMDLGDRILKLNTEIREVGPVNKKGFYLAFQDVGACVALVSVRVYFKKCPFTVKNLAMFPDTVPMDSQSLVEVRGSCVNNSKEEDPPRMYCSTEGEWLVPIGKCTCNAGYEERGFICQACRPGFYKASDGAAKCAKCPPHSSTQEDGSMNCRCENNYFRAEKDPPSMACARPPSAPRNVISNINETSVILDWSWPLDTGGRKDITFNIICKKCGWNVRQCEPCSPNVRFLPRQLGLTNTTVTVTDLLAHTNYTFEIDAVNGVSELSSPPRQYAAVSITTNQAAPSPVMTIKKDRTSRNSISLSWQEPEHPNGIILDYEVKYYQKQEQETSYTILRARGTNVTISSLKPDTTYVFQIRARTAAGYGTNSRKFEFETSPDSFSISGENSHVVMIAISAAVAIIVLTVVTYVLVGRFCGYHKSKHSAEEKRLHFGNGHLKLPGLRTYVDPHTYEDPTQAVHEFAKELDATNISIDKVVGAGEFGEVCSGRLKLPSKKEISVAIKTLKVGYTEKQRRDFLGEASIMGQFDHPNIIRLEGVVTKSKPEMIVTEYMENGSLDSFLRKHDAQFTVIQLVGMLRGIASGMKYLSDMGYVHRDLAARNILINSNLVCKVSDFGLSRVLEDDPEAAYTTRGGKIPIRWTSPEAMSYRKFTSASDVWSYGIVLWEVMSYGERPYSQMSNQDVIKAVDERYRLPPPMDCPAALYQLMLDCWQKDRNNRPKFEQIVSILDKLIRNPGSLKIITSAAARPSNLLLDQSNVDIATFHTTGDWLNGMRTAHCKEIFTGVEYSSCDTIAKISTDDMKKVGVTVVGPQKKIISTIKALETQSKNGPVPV

IC50 [1]: 2000 nM
Molecule: COc1cc2ncnc(Nc3ccc(Cl)c(Cl)c3)c2cc1OC [sqnm-1]

IC50 [1]: 4500 nM
Molecule: COc1cc2ncnc(Nc3cccc(Cl)c3)c2cc1OC [sqnm-4]

IC50 [1]: 500 nM
Molecule: COc1cc2ncnc(Nc3ccc(Cl)cc3F)c2cc1OC [sqnm-5]

IC50 [1]: 900 nM
Molecule: COc1cc2c(Nc3ccc(Cl)cc3F)ncnc2cc1OCC1CCN(C)CC1 [sqnm-7]

IC50 [1]: 2000 nM
Molecule: COc1cc2c(Nc3cc(Cl)ccc3F)ncnc2cc1OCC1CCN(C)CC1 [sqnm-8]

IC50 [1]: 200 nM
Molecule: COc1cc2c(Nc3ccc(Cl)c(Cl)c3)ncnc2cc1OCC1CN(C2CCCC2)CCO1 (stereo not drawn) [sqnm-9]

IC50 [1]: 300 nM
Molecule: COc1cc2c(Nc3ccc(Cl)cc3F)ncnc2cc1OCC1CN(C2CCCC2)CCO1 (stereo not drawn) [sqnm-10]

IC50 [1]: 400 nM
Molecule: COc1cc2c(Nc3ccc(Cl)c(Cl)c3)ncnc2cc1OCC1CN(C)CCO1 (stereo not drawn) [sqnm-11]

IC50 [1]: 200 nM
Molecule: COc1cc2c(Nc3ccc(Cl)c(Br)c3)ncnc2cc1OCC1CN(C)CCO1 (stereo not drawn) [sqnm-12]

IC50 [1]: 200 nM
Molecule: COc1cc2c(Nc3ccc(Cl)cc3F)ncnc2cc1OCC1CN(C)CCO1 (stereo not drawn) [sqnm-14]

IC50 [1]: 800 nM
Molecule: COc1cc2c(Nc3ccc(Cl)cc3F)ncnc2cc1OCC1CN(C(C)C)CCO1 (stereo not drawn) [sqnm-15]

IC50 [1]: 11000 nM
Molecule: Oc1cccc(Nc2ncnc3ccccc23)c1 [sqnm-16]

Molecule: insulin: porcine insulin used to stimulate differentiated 3T3-L1 cells
resistin mRNA levels [2]: decrease
increase in TG stores [3]: about 23%
increase in uptake of radioactive glucose [4]: 22 fold

insulin-mediated triacylglycerol (TG) stores, differentiated 3T3-L1, 10 min pretreatment with ephrin-A5 [5]: 10 % decrease
uptake of radioactive glucose, insulin-treated differentiated 3T3-L1, 10 min pretreatment with pre-clustered ephrin-A5 [5]: 20 % decrease
uptake of radioactive glucose, insulin-treated differentiated 3T3-L1, 90 min preincubation with pre-clustered ephrin-A5 [5]: 15 % decrease
B1: recombinant rat ephrin-A5/Fc chimeric ligand, preclustered with anti-human IgG, Fc γ fragment specific antibody (Fc fusion, part only; not given: Fc part, UniProt P97605 21-203, looked up, part only)
chain, part: QDPGSKVVADRYAVYWNSSNPRFQRGDYHIDVCINDYLDVFCPHYEDSVPEDKTERYVLYMVNFDGYSACDHTSKGFKRWECNRPHSPNGPLKFSEKFQLFTPFSLGFEFRPGREYFYISSAIPDNGRRSCLKLKVFVRPTNSCMKTIGVRDRVFDVNDKVENSLEPADDTVHESAEPSRGEN
